Test results: US11166940B2, “Treatment of cardiac disorders by blocking SK4 potassium channel” (Ramot at Tel-Aviv University Ltd., priority 2016, dated 2021)

Legend:
[1] = test system: SAN cells from CASQ2-D307H KI mice; test: Spontaneous APs and DADs of isolated SAN cells from CASQ2 D307H KI mice; assay type: cell-based, mouse; details: 2 μM TRAM-34 added to 50 nM isoproterenol
Procedure: WT and CASQ2 D307H KI mice were anesthetized with isofluorane and sacrificed by cervical dislocation. The heart was rapidly removed and transferred into Tyrode solution containing heparin. […] The area was cleaned, cut into small strips and washed into a Low Calcium Solution, containing (in mM): 140 NaCl, 5.4 KCl, 0.5 MgCl2, 1.2 KH2PO4, 5 HEPES-NaOH, 50 taurine, 5.5 glucose (pH 6.9). The osmolarity was adjusted if needed to 315 mOsm.
The same solution, supplemented with 1 mg/ml albumin, 200 μM CaCl2, collagenase Type I (Worthington) or liberase TH (Roche), protease (Sigma) and elastase (Sigma) was used for enzymatic digestion as previously described [See, Mesirca, P., et al. Nat Commun 5, 4664 (2014)]. In this step, the tissue was gently resuspended with a polished Pasteur pipette in this solution for 9-13 minutes at 37° C. SAN samples were then washed three times in a modified “Kraftbrühe” solution, containing (in mM): 70 glutamic acid, 80 KOH, 20 KCl, 10 γ-Hydroxybutyric acid sodium salt, 10 KH2PO4, 10 HEPES-KOH, 10 taurine, 1 mg/ml albumin, 0.1 EGTA-KOH (pH 7.2). […] Cells were then gradually exposed to increasing concentrations of calcium, following a “Ca^2+ readaptation” protocol [Mesirca et al., 2014, supra]. […]
FIG. 5F (Left) presents representative traces of spontaneous APs recorded in single SAN cell from CASQ2 D307H KI mice. […]

[2] = test system: WT mice; test: In vivo telemetric ECG recording in WT (normal) mice; parameters: species or system mouse; details: 20 mg/kg IP, WT mice at rest
Text: (§1) Telemetric ambulatory long-term ECG recordings, analogous to Holter monitoring in humans, were obtained with implantable transmitters. […] An implantable 3.5 grams wireless radiofrequency transmitter (DSI MM USA, device weight 3.8 grams) was aseptically inserted into a subcutaneous tissue pocket in the back as described in Katz, G., et al. Heart Rhythm 7, 1676-1682 (2010) and Kurtzwald-Josefson, E., et al. Heart Rhythm 11, 1471-1479 (2014)]. Animals were allowed to recover after surgery for at least 24 hours before any experiments. Baseline electrocardiograms (ECG) were obtained 15 minutes after IP injection of the appropriate vehicle (peanut oil or peanut oil supplemented with ethanol 1%). […] Telemetered ECG tracings were obtained in conscious mice at rest for one minute and during peak exercise (i.e. the first minute of recovery). In the treadmill exercise, mice were forced to exercise on a rodent treadmill; gradually increasing the speed up to a maximum of 15 m/minute. Ventricular tachycardia (VT) was defined as four or more consecutive ventricular beats. If this phenotype was consecutively observed for more than 15 seconds, it was defined as “sustained” ventricular tachycardia (SVT). Shorter VTs were characterized as “non-sustained” (NSVT). All other ventricular arrhythmias, such as premature beats, ventricular bigeminy, couplets and triplets were all defined as ventricular premature contractions (VPCs).
For this, a heart telemetry device was implanted in norma mice for continuous ECG recording at rest and during treadmill exercise. For each session, continuous ECG recording was performed with the same animals receiving first intraperitoneal (IP) injection of vehicle (peanut oil) and then 20 mg/kg clotrimazole.
(§2) A heart telemetry device was implanted in WT, CASQ2-D307H KI and CASQ2 KO mice for continuous ECG recording at rest and during treadmill exercise. For each session, continuous ECG recording was performed with the same animals receiving first intraperitoneal (IP) injection of vehicle (peanut oil) and then the SK4 channel blocker.

[3] = test system: CASQ2 KO mice; test: In vivo telemetric ECG recording in CASQ2 KO mice; parameters: species or system mouse; details: 20 mg/kg IP; for number of mice, most severe ECG form: NSVT / number of mice, most severe ECG form: Normal (sinusal rhythm) / number of mice, most severe ECG form: SVT / number of mice, most severe ECG form: VPC: n=6
Text: as §1, §2
The types of arrhythmic features were classified following their seriousness: sinusal rhythm (normal), ventricular premature contractions (VPC), non-sustained ventricular tachycardia (NSVT) and sustained ventricular tachycardia (SVT). For each mouse was considered the most severe form of arrhythmia recorded under ECG.

[4] = test system: If and INCX currents; details: 5 μM TRAM-34; cited from earlier work
[5] = test system: T type and L-type Ca2+ currents; test: Selectivity: voltage-ramp protocol in hESC-CMs, zero free Ca2+ in pipet; assay type: cell-based, human; details: 5 μM TRAM-34; zero free Ca2+ in pipet solution; n=7
Procedure: The experiments were performed in zero free Ca2+ in the pipet solution.

[6] = test system: CPVT2 hiPSC-CMs; test: Spontaneous APs and DADs in hiPS-CMs derived from CPVT2 (CASQ2 D307H) patients; assay type: cell-based, human; details: 5 μM TRAM-34 added to 3 μM isoproterenol
Procedure: In all experiments, the coverslips were perfused at 33° C. with an external solution containing (in mM): 140 NaCl, 4 KCl, 11 Glucose, 1.2 MgCl2, 1.8 CaCl2, 5.5 HEPES titrated to pH 7.4 with NaOH and adjusted at 320 mOsm with sucrose.
FIG. 4F (Left) presents representative traces of spontaneous APs recorded in hiPS-CM derived from a CPVT2 (CASQ2 D307H) patients. From a regular pacing (black trace), DADs appeared when the cell was exposed to 3 μM isoproterenol (red trace, arrows). […] The suppression of cell 540 automaticity was reversible upon washout (blue trace). FIG. 4F (Right) present bar graphs showing data summary of pacing rate (n=17), on APD50 (n=17) and DADs (Normalized to Ctrl; one-way ANOVA***P=0.0001, n=15).

Clc1ccccc1C(c1ccccc1)(c1ccccc1)n1cccn1 [TRAM-34, 1-[(2-chlorophenyl)diphenylmethyl]-1H-pyrazole]
occurrence of DADs [1]: drastically reduced | prolongation of the PR interval [2]: 20% | reduction of resting heart rate ([2]; vs vehicle in same animal): 16±3% | PR prolongation ([3]; KO mice at rest, n=7): 46% | heart rate decrease ([3]; KO mice at rest, n=7): 34±7% | sinus rate and PR interval ([3]; KO mice during treadmill exercise): significant sinus bradycardia and PR interval prolongation | number of mice, most severe ECG form: NSVT ([3]; KO at rest): 0 | number of mice, most severe ECG form: Normal (sinusal rhythm) ([3]; KO at rest): 6 | number of mice, most severe ECG form: SVT ([3]; KO at rest): 0 | number of mice, most severe ECG form: VPC ([3]; KO at rest): 0 | number of mice, most severe ECG form: NSVT ([3]; KO during exercise): 3 | number of mice, most severe ECG form: Normal (sinusal rhythm) ([3]; KO during exercise): 3 | number of mice, most severe ECG form: SVT ([3]; KO during exercise): 0 | number of mice, most severe ECG form: VPC ([3]; KO during exercise): 0 | If and INCX currents [4]: unaffected | T type and L type Ca2+ currents (two inward humps) [5]: does not alter the voltage-gated Ca2+ currents | number of DADs [6]: drastically reduced the number of DADs | spontaneous activity [6]: reversible cessation of the spontaneous activity
